Experimental data as given in ChEMBL document CHEMBL1201862, “PubChem BioAssay data set” (2004).
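96-well plates; 48 h exposure; 5 concentrations. Endpoints by linear interpolation between flanking doses. Not reached: highest tested concentration assigned. GI50: concentration for 50% inhibition of growth.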 Calls of active or inactive are those of the source. No stated cut-off is given here; in the data, active = GI50 up to about 1.1 µM and inactive = higher.

Tests used:
Assay in all cases: NCI-60 cell line screen, 48 h
U-251 = tested on: U-251
SK-OV-3 = tested on: SK-OV-3
SNB-75 = tested on: SNB-75
NCI/ADR-RES = tested on: NCI/ADR-RES
A549 = tested on: A549
MDA-MB-231 = tested on: MDA-MB-231
SF-295 = tested on: SF-295
M14 = tested on: M14
SK-MEL-28 = tested on: SK-MEL-28
IGROV-1 = tested on: IGROV-1
SNB-19 = tested on: SNB-19
CCRF-CEM = tested on: CCRF-CEM
RXF 393 = tested on: RXF 393
HOP-62 = tested on: HOP-62
NCI-H460 = tested on: NCI-H460
A498 = tested on: A498
DU-145 = tested on: DU-145
KM12 = tested on: KM12
PC-3 = tested on: PC-3
SR = tested on: SR
SF-268 = tested on: SF-268
EKVX = tested on: EKVX
MDA-MB-435 = tested on: MDA-MB-435
OVCAR-3 = tested on: OVCAR-3
HCT-116 = tested on: HCT-116
RPMI-8226 = tested on: RPMI-8226
MCF7 = tested on: MCF7
T47D = tested on: T47D
Malme-3M = tested on: Malme-3M
TK-10 = tested on: TK-10
SF-539 = tested on: SF-539
HT-29 = tested on: HT-29
OVCAR-4 = tested on: OVCAR-4
HL-60 = tested on: HL-60
SK-MEL-5 = tested on: SK-MEL-5
SW-620 = tested on: SW-620
UACC-257 = tested on: UACC-257
MOLT-4 = tested on: MOLT-4
COLO 205 = tested on: COLO 205
HCC 2998 = tested on: HCC 2998
K562 = tested on: K562
HCT-15 = tested on: HCT-15
786-0 = tested on: 786-0
NCI-H23 = tested on: NCI-H23
UACC-62 = tested on: UACC-62
SN12C = tested on: SN12C
LOX IMVI = tested on: LOX IMVI
OVCAR-5 = tested on: OVCAR-5
ACHN = tested on: ACHN
Hs-578T = tested on: Hs-578T
SK-MEL-2 = tested on: SK-MEL-2
NCI-H226 = tested on: NCI-H226
UO-31 = tested on: UO-31
MDA-N = tested on: MDA-N
OVCAR-8 = tested on: OVCAR-8
NCI-H522 = tested on: NCI-H522
CAKI-1 = tested on: CAKI-1
HOP-92 = tested on: HOP-92

In the case of CN(C)/C=N/n1c2ccccc2c2ccccc21, the GI50 (U-251) is reported as > 100 µM (inactive), the GI50 (SK-OV-3) is reported as > 100 µM (inactive) and the GI50 (SNB-75) is reported as 71.1 µM (inactive). For the same molecule, the GI50 (NCI/ADR-RES) was > 100 µM (inactive), the GI50 (A549) was > 100 µM (inactive) and the GI50 (MDA-MB-231) was > 100 µM (inactive). The GI50 (SF-295) was > 100 µM (inactive), the GI50 (M14) was > 100 µM (inactive) and the GI50 (SK-MEL-28) was > 100 µM (inactive). For the same molecule, the GI50 (IGROV-1) was > 100 µM (inactive), the GI50 (SNB-19) was > 100 µM (inactive) and the GI50 (CCRF-CEM) was > 100 µM (inactive). For the same molecule, the GI50 (RXF 393) was > 100 µM (inactive), the GI50 (HOP-62) was > 100 µM (inactive) and the GI50 (NCI-H460) was > 100 µM (inactive). For the same molecule, the GI50 (A498) was 26.4 µM (inactive), the GI50 (DU-145) was > 100 µM (inactive) and the GI50 (KM12) was > 100 µM (inactive). The GI50 (PC-3) was > 100 µM (inactive), the GI50 (SR) was > 100 µM (inactive) and the GI50 (SF-268) was > 100 µM (inactive). The GI50 (EKVX) was > 100 µM (inactive), the GI50 (MDA-MB-435) was > 100 µM (inactive) and the GI50 (OVCAR-3) was > 100 µM (inactive). For the same molecule, the GI50 (HCT-116) was > 100 µM (inactive), the GI50 (RPMI-8226) was > 100 µM (inactive) and the GI50 (MCF7) was > 100 µM (inactive). The GI50 (T47D) was > 100 µM (inactive), the GI50 (Malme-3M) was 50.1 µM (inactive) and the GI50 (TK-10) was > 100 µM (inactive). For the same molecule, the GI50 (SF-539) was > 100 µM (inactive), the GI50 (HT-29) was > 100 µM (inactive) and the GI50 (OVCAR-4) was > 100 µM (inactive). The GI50 (HL-60) was > 100 µM (inactive), the GI50 (SK-MEL-5) was > 100 µM (inactive) and the GI50 (SW-620) was > 100 µM (inactive). For the same molecule, the GI50 (UACC-257) was > 100 µM (inactive), the GI50 (MOLT-4) was 69.8 µM (inactive) and the GI50 (COLO 205) was 83.6 µM (inactive). For the same molecule, the GI50 (HCC 2998) was > 100 µM (inactive), the GI50 (K562) was > 100 µM (inactive) and the GI50 (HCT-15) was greater than 100 µM. For the same molecule, the GI50 (786-0) was > 100 µM (inactive), the GI50 (NCI-H23) was > 100 µM (inactive) and the GI50 (UACC-62) was > 100 µM (inactive). For the same molecule, the GI50 (SN12C) was > 100 µM (inactive), the GI50 (LOX IMVI) was > 100 µM (inactive) and the GI50 (OVCAR-5) was > 100 µM (inactive). The GI50 (ACHN) was > 100 µM (inactive), the GI50 (Hs-578T) was 34 µM (inactive) and the GI50 (SK-MEL-2) was > 100 µM (inactive). For the same molecule, the GI50 (NCI-H226) was > 100 µM (inactive), the GI50 (UO-31) was > 100 µM (inactive) and the GI50 (MDA-N) was > 100 µM (inactive). The GI50 (OVCAR-8) was > 100 µM (inactive), the GI50 (NCI-H522) was > 100 µM (inactive) and the GI50 (CAKI-1) was 3.64 µM (inactive).

In the case of CCCCc1cc2c(cc1O)CCC1C2CC[C@@]2(C)C1CC[C@@H]2O (some centres undefined), the GI50 (U-251) is reported as 19.4 µM (inactive), the GI50 (SK-OV-3) is reported as 16.3 µM (inactive) and the GI50 (SNB-75) is reported as 13 µM (inactive). For the same molecule, the GI50 (NCI/ADR-RES) was 18.7 µM (inactive), the GI50 (A549) was 13.5 µM (inactive) and the GI50 (MDA-MB-231) was 29.3 µM (inactive). The GI50 (SF-295) was 13.3 µM (inactive), the GI50 (M14) was 18.9 µM (inactive) and the GI50 (SK-MEL-28) was 23 µM (inactive). For the same molecule, the GI50 (IGROV-1) was 22 µM (inactive), the GI50 (SNB-19) was 25.5 µM (inactive) and the GI50 (CCRF-CEM) was 21.5 µM (inactive). For the same molecule, the GI50 (RXF 393) was 2.89 µM (inactive), the GI50 (HOP-62) was 28.4 µM (inactive) and the GI50 (NCI-H460) was 21.9 µM (inactive). The GI50 (A498) was 21.8 µM (inactive), the GI50 (DU-145) was 18.3 µM (inactive) and the GI50 (KM12) was 12.3 µM (inactive). For the same molecule, the GI50 (PC-3) was 12.4 µM (inactive), the GI50 (SR) was 21.4 µM (inactive) and the GI50 (SF-268) was 29.6 µM (inactive). The GI50 (EKVX) was 14.8 µM (inactive), the GI50 (MDA-MB-435) was 16.9 µM (inactive) and the GI50 (OVCAR-3) was 13.7 µM (inactive). For the same molecule, the GI50 (HCT-116) was 14.3 µM (inactive), the GI50 (RPMI-8226) was 5.14 µM (inactive) and the GI50 (MCF7) was 11.8 µM (inactive). The GI50 (T47D) was 8.97 µM (inactive), the GI50 (Malme-3M) was 20.7 µM (inactive) and the GI50 (TK-10) was 18.3 µM (inactive). For the same molecule, the GI50 (SF-539) was 26.2 µM (inactive), the GI50 (HT-29) was 23.2 µM (inactive) and the GI50 (OVCAR-4) was 20.4 µM (inactive). For the same molecule, the GI50 (SK-MEL-5) was 20.8 µM (inactive), the GI50 (SW-620) was 20.2 µM (inactive) and the GI50 (UACC-257) was 15.4 µM (inactive). For the same molecule, the GI50 (MOLT-4) was 11.7 µM (inactive), the GI50 (COLO 205) was 24.7 µM (inactive) and the GI50 (HCC 2998) was 19.9 µM (inactive). For the same molecule, the GI50 (K562) was 9.38 µM (inactive), the GI50 (HCT-15) was 23.8 µM and the GI50 (786-0) was 22.8 µM (inactive). The GI50 (NCI-H23) was 20.2 µM (inactive), the GI50 (UACC-62) was 11.6 µM (inactive) and the GI50 (SN12C) was 18.7 µM (inactive). For the same molecule, the GI50 (LOX IMVI) was 16.6 µM (inactive), the GI50 (OVCAR-5) was 17.7 µM (inactive) and the GI50 (ACHN) was 16.2 µM (inactive). The GI50 (Hs-578T) was 11.3 µM (inactive), the GI50 (SK-MEL-2) was 18.4 µM (inactive) and the GI50 (NCI-H226) was 16.9 µM (inactive). For the same molecule, the GI50 (UO-31) was 14.5 µM (inactive), the GI50 (MDA-N) was 23.4 µM (inactive) and the GI50 (OVCAR-8) was 15.3 µM (inactive). For the same molecule, the GI50 (HOP-92) was 20 µM (inactive), the GI50 (NCI-H522) was 14 µM (inactive) and the GI50 (CAKI-1) was 16.6 µM (inactive).
